# Key:
# bacteriophage MS2 = assay: Kinetics of bacteriophage MS2 infectivity inactivation; format: cell-based; settings: 1 mM trimer, 23° C., pH 7.13, after 30 minutes of incubation (FIG. 1)
# Method: Ethyleneimine trimer is known to inactivate the infectivity of bacteriophage MS2. The ability of the trimer to inactivate the infectivity of MS2 in the presence of TNBP and Tween 80 was determined as follows.
# A stock of bacteriophage MS2 (ATCC number 15597-B1) was prepared according to conventional procedures (D. L. Rogerson and G. Rushizky, Analytical Biochemistry 67: 675-678 (1975)). Purification was performed by sedimentation of bacteriophage in the presence of 6% polyethylene glycol (PEG 8000, USB) as described in K. Yamamoto and B. Alberts, Virology 40: 734-744 (1970).
# Purified phage were suspended in 0.15 M NaCl solution (final bacteriophage stock titer was 5×10^13 pfu/ml) and stored at 4° C. The infectivity (titer) of phage suspension was determined by conventional bilayer technique on LB agar with the F^+ strain of Escherichia coli C-3000 (ATCC number 15597).
# Ethyleneimine trimer was prepared as described above. […]
# Aliquots of the reaction mixture incubated at 23° C. were taken at five defined time intervals. MS2 infectivity inactivation (log S0/St, where S0 and St are the infectivity (titer) of the suspension before and t min after the start of inactivation) was determined at these five points.
# Porcine Parvovirus (PPV) = assay: Inactivation of porcine parvovirus (PPV), TCID50 titer on PT-1 cells; format: cell-based; settings: dropped from 7.1 logs, 3 hours, room temperature, dimer 0.1%, detergent = 1% Tween 80, 0.3% TNBP (FIG. 3)
# Method: PPV is a non-enveloped virus; it is known to be inactivated with ethyleneimine dimer. The ability of ethyleneimine dimer to inactivate PPV in the presence of a solvent-detergent mixture was determined as follows.
# A detergent stock solution (1% Tween 80, 0.3% TNBP in 0.1 M MOPS, 50 mM NaCl, pH 7.0) was prepared. A 5% dimer stock solution was prepared with 250 μl of 0.1 M MOPS, NaCl 50 mM, pH 7.0, and 12.5 μl dimer (ethyleneimine dimer, Dalton Chemical Laboratories, Inc., lot number LB-4-69A-03319). In addition, a quenching solution with a sodium thiosulphate concentration of 0.1M in 0.1 M MOPS, pH 7.0, was prepared.
# (a) 9 ml 0.1 M MOPS, 50 mM NaCl, pH 7.0 was combined with 200 μl dimer stock solution. 1.0 ml PPV (PPV stock #1 filtered through 0.22μ filter) was added. The concentration of dimer in the resulting solution was 0.1%. The mixture was incubated at room temperature for a given period of time (0-3 hours). After the given time period, 1.85 ml of the solution was removed, and 0.15 ml quenching solution was added. Quenching occurred over a period of 30 minutes at room temperature. The concentration of sodium thiosulphate in the final solution was […].
# (b) 9 ml detergent stock solution was combined with 1.0 ml PPV. The mixture was incubated for 0-3 hours at room temperature. A 2 ml aliquot was removed at each time point for assay. […]
SMILES,"MS2 infectivity inactivation (log S0/St), trimer alone compared with trimer plus solvent-detergent (bacteriophage MS2)",titer of the virus (TCID50) after treatment (Porcine Parvovirus (PPV)) [logs]
"NCCNCCN1CC1 [trimer, ethyleneimine trimer]",essentially the same infectivity inactivation,
"NCCN1CC1 [dimer, ethyleneimine dimer]",,3.2

# — patent US6774123B1, “Methods and compositions for inactivating viruses” (priority 1998, dated 2004)
